Experimental data taken from patent publication US12257294B2, “Therapeutics for autoimmune disease: synthetic antigens” (DANMARKS TEKNISKE UNIVERSITET, priority 2018, dated 2025).
Non-standard residues stand in square brackets, D forms with d. No end group written: not given here. Cit = NC(=O)NCCC[C@H](N)C(=O)O; {NH2} = amino modification

Experiments:
[1] = Scanning electron microscopy, nanoparticle size; type: physicochemical; details: SEM
Procedure: Nanosight experiment: Nanosight measurement was done in Jang lab, DTU, using Nano sight equipment NTA Version: NTA 3.1 Build 3.1.46 with Script SOP Standard Measurement 03-47-19PM 20D. The cell of the equipment must be cleaned and unscrewed totally by ethanol and Millipore water. 500 μL diluted sample was injected three times for three run and the concentration of Nanoparticles was adjusted using water pH 6 if the concentration of samples doesn't fit the analysis. The size distribution data and the size with maximum number of particles were recorded, see FIG. 10.
Scanning Electron Microscopy (SEM): The morphology of the Chitosan nanoparticles (NP) was investigated using a Quanta FEG 3D scanning electron microscope (SEM). Samples were attached on metal stubs with double-sided adhesive carbon tape and coated with 6 nm of gold for better conductivity using a sputter coater (Leica Coater ACE 200). The average NP diameter was calculated using image J analysis software (National Institutes of Health, MD, USA) measured at different NP for each image.

[2] = system: autoantibodies in plasma of RA patients, SLE and healthy controls; assay: ELISA testing of PEP2 and PEP2-nanoconjugates; type: binding, human; details: 30 individuals
Procedure: Prior to ELISA, total amount of protein in each sample was estimated by Bradford method using standard curve of BSA control at known concentration (BioRad). In a maxisorb 96 well plate controls (BSA standard samples at concentrations 2 mg/mL, 1 mg/mL, 0.5 mg/mL and 0.1 mg/mL) and plasma sample were mixed with a Bradford reagent following manufacturer's protocol (BioRad). Plasma samples were used in dilution 1:100. Resulting absorbances at 595 nm were measured on Magellan Tecan microplate reader. Total amount of protein was calculated using standard curve.
ELISA: Maxisorb 96 well plates (NUNC Thermofisher) were coated with nanoparticle antigens/controls at concentration 8 μg/mL in 1×PBS overnight (room temperature; 100 μl/well). After washing with 1×PT (2×300 μl/well, PT: 50 μl Tween-20 in 1 L 1×PBS), the plates were blocked with 1×PTB (1 h, 37° C.; 100 μl/well, PTB: 20 g BSA, 50 μl Tween-20 in 1 L 1×PBS). Incubation with plasma at desired dilution was performed at room temperature for 1.5 h using diluent: 2 g BSA, 50 μl Tween-20 in 1 L 1×PBS (100 μl/well). This was followed by washing (2×300 μl 1×PBS) and incubation with HPR-labelled secondary antibody for 1.5 h at room temperature using same diluent and dilution of the secondary antibody provided by supplier (HPR-conjugated a-aIgG; Sigma). Subsequent washing (2×300 μl PT) and incubation with freshly prepared TMB-H2O2 solution (Sigma; 100 μl/well) was followed by adding a stop solution (1M H2SO4; 50 μl/well) and reading resulting absorbance values at 450 nm on Magellan Tecan microplate reader. Linear range for each antigen was determined via testing series of control dilutions (SLE and healthy controls in dilutions 1:50 to 1:2000). According to the results plasma dilutions 1:100-1:500 were within linear range of the assay for each antigen (R2>0.95).

[3] = system: NZB/W mice; assay: In vivo mice assay, disease activity index (DAI); details: control treatment, same regimen
Procedure: For the further in vivo test, a well-described mice model was selected: NZB/W mice, these have been used as a model for autoimmune disease since the early 1960s. Mice of this hybrid cross develop an autoimmune disease resembling human SLE. Nine-week-old NZB/W mice were kindly provided by […] group, Statens Serum Institute, Denmark; they were grown and tested for the presence of anti-dsDNA antibodies as described in example 6. […] Two mice were used for each conjugate. Mice received IV conjugate/control administration (same amount each time), with 12 h intervals for 5 days, and afterwards giving the same dose with 3 day interval over 3 weeks. […] Administration regimen for same as for nanoconjugate complexes: IV in tail vein with 12 h interval for 5 days, and afterwards giving the same dose with 3 day interval. Blood samples were withdrawn at time points: 24 h, 48 h, 1 week, 4 weeks after the beginning of each treatment. Plasma was centrifuged using Qiagen blood storage tubes and stored at -20° C. prior to analyses. ELISA analysis was performed using manufacturer's protocols in sera dilution 1:100 to 1:500. […] At early time points 10 nM conjugate works better than 1 nM.

[4] = system: ACPA in RA sera (vs healthy controls and SLE); assay: ELISA screening of citrullinated peptide library; type: binding, human
Text: Citrullinated peptide antigens PEP1-PEP25 (SEQ ID No 9-33) (free amine and carboxy-termini) have been purchased from CALSO, Copenhagen, Denmark, and screened in ELISA of a cohort of 30 RA patients, 30 matched healthy controls and 30 patients with systemic lupus erythematosus. Overall, 16 peptide antigens […], from all the three groups, recognised RA sera.

[5] = system: purified SLE-antibodies; assay: ELISA selectivity of antigens D7 and D8 for purified SLE antibodies; type: binding; details: vs control samples comprising other antibodies
Procedure: SLE antibodies from sera were captured by affinity chromatography using NHS-sepharose and modified antigens as specified in table 9. […] Sera was pre-treated with CaCl2)/dextran to remove lipoproteins prior to applying to column. Sera sample was added to column; incubated for 4 min; washed at 0.5 ml/min flow rate with 20 mM PBS, 5 column volumes; and finally SLE antibodies were eluted with 3 column volumes of 100 mM glycine-HCl, 10% dioxane pH 2.5-3.
Standard ELISA was used to test the selectivity of D7 and D8. ELISA plates comprising antigens D7 and D8, respectively, were tested for their ability to specifically bind the purified SLE-antibodies compared to control samples comprising other antibodies.

[6] = system: NZB/W F1 mice; assay: SLE mice study, SLEDAI; type: in vivo; details: 2 weeks of treatment and 2 weeks after
Procedure: […]1 in 1×PBS was administered by IV in the tail vain every 12 h over 2 weeks, at a conjugate dosage of 160 μg/kg animal weight for 10 nM concentration. 30 mice were tested; 80% were female; average age 20 week; average weight/median 20.2 g (18.4 g-23.1 g). […] (HQ) was used as control, PO, 2 mg/kg, every 24 h over 2 weeks.

Compound	Average nanoparticle size [1]	Positive individuals, %: Disease control SLE [2]	Positive individuals, %: Healthy [2]	Positive individuals, %: Patients with RA [2]	Positive individuals, n: Disease control SLE [2]	Positive individuals, n: Healthy [2]	Positive individuals, n: Patients with RA [2]	also measured
NP2: Chitosan/Hyaluronic acid/PEG/PEP2 nanoconjugate, presumably non-covalent attachment of peptide to CS/HA (HHPGIAEFPS[Cit]GKSYSYSKQF; ends and bridges not checked; also: presumably non-covalently loaded in chitosan/hyaluronic acid/PEG nanoconjugate)	520 nm	(7) %	(7) %	(53) %	2	2	16	–
Gentamicin [reference compound]	–	–	–	–	–	–	–	Effect on DAI [3]: only a short term drop in DAI
HHP GIA EFP S(Cit)G KSY SYS KQF (HHPGIAEFPS[Cit]GKSYSYSKQF) [PEP2]	–	(7) %	(0) %	(57) %	2	0	17	Binding in RA samples (share of patients) ([4]; 30 RA patients): 57%; Binding in healthy controls (share) ([4]; 30 matched healthy controls): 0%; Binding in SLE (share of patients) ([4]; 30 patients with systemic lupus erythematosus): 7%
NP1: Chitosan/Hyaluronic acid/PEG/PEP2 nanoconjugate, presumably covalent attachment of peptide via PEG to CS/HA (HHPGIAEFPS[Cit]GKSYSYSKQF; ends and bridges not checked; also: presumably covalently attached via PEG to chitosan/hyaluronic acid nanoconjugate)	100-300 nm	(7) %	(3) %	(57) %	2	1	17	–
NH2-(TCCT)6:(AGGA)6 (TCCTTCCTTCCTTCCTTCCTTCCT; DNA, 5' {NH2}, backbone and methylation of C not given here; further chemistry not fully specified) [Conjugate D8, Pre-annealed amino-modified duplex antigen]	–	–	–	–	–	–	–	Selectivity for SLE antibodies [5]: selective for SLE antibodies
Oc1ccc(O)cc1 [HQ, Hydroquinone]	–	–	–	–	–	–	–	SLEDAI (SLE disease activity index), course [6]: reduces SLEDAI faster; however the disease flares after day 17 in treatment
